Data as given in patent US9199028B2, “Use of entrained neutrophils to treat metastatic and micrometastatic disease in at risk patients” (MEMORIAL SLOAN-KETTERING CANCER CENTER, priority 2010, dated 2015).
“Also recorded” adds a separate entry of the source.

What was measured:
[1] = TGFbeta inhibitor, Tocris; cited from earlier work
4T1 cells = test: In vitro killing assay: TENs co-cultured with 4T1 cells in the presence of inhibitors or TGF-β; assay type: cell-based, mouse; conditions: TENs + 4T1 cells overnight; Apocynin 100 μM, Catalase 1,000 u/ml, Superoxide Dismutase 1,000 u/ml, Taurine 50 mM
Text: Antibodies used for immunohistochemistry—MMP9, F4/80 and CCR2 (all from AbCam), Myeloperoxidase (Dako), Ly-6G and Cd11b (both from BD), and Cleaved Caspase 3 (Cell signalling). Antibodies used for western blotting—Actin (Sigma), CCL2 (AbCam) and CCL5 (R&D) p-SMAD2 (cell signalling). Antibodies used for FACS analysis FITC-Ly-6G, FITC-Cd11b, FITC-F4/80, FITC-Cd34 and FITC-c-Kit (all from BD) and VEGFR1-AP (R&D). Neutrophil Depletion Neutrophil depletion was achieved using daily IP injections of 12.5 μg Rat anti-Gr-1 antibody (BD) or Rat anti-Ly-6G antibody (BD) starting on day 3 post tumour engraftment. Starting on day 14, neutrophil depleting antibodies were administered twice daily. Control mice were injected with […] Rat isotype control (BD). Neutrophil depletion was monitored by manual blood differentials and FACS analysis. Flow Cytometry Peripheral blood was collected into EDTA-coated tubes, washed and resuspended in FACS buffer solution (PBS, 2% heat-inactivated FCS, 5 mM EDTA, and 0.02% sodium azide). The samples were blocked with […] and then incubated with fluorophore-conjugated antibodies. Erythrocytes were then lysed with FACS lysing solution (BD Biosciences) and the cell suspensions were analyzed on a FACSCalibur (BD Biosciences). Colony Formation Assay Female nude mice were orthotopically injected with 5×10^6 puromicin resistant 4T1 cells. On days 7 and 14 post tumour engraftment the mice were sacrificed and perfused with PBS. The lungs and livers were removed, washed with PBS and dissociated with Collagenase A (Roche). The single cell suspension was then plated onto puromicin containing media and selected for 14 day. Colonies were stained with Methylene-Blue and counted manually. Mouse Neutrophil Purification Whole blood was collected by cardiac puncture using heparinized (Sigma) syringe. The blood was diluted with 5 volumes of PBS containing 0.5% BSA and subjected to a discontinuous Histopaque (Sigma) gradient (1.077 and 1.119). Neutrophils were collected from the 1.077-1.119 interface, lymphocytes and monocytes collected from the plasma-1.077 interface. RBCs were eliminated by hypotonic lysis. The cells were washed twice with PBS-BSA and re-suspended in OptiMEM (Invitrogen) 0.5% FBS in a final concentration of 2×10^6 cells/ml. Neutrophil purity and viability were determined visually and were consistently >98%. Human Neutrophil Purification As part of a Memorial Sloan-Kettering Cancer Center institutionally approved protocol, blood samples (˜10 cc) were collected from healthy volunteers or from patients who were already having blood drawn for pre-surgical testing. Patients were consented accordingly as part of the approved protocol. […] Patients had either mastectomies or lumpectomies planned and had blood drawn prior to definitive surgical removal of their primary tumor or chemotherapy. Blood samples were transferred to the lab for analysis no more than 1 hour post-blood draw. Heparinzed blood (20 U/ml final) was mixed with an equal volume of Dextran 500 (3% in saline) and incubated 30 minutes at room temperature. The leukocyte-rich supernatant was layered on top of histopaque 1077 (Sigma) and centrifuged. Neutrophils, collected in the pellet fraction, were resuspended in 10 ml 0.2% NaCl for 30 seconds to remove contaminating erythrocytes. Isotonicity was restored by the addition of 10 ml 1.6% NaCl. Neutrophils were than washed three times in Hanks's balanced salt solution and resuspended in RPMI+FCS2%. In vitro Killing Assay Luciferase labelled cells (5,000/well) were plated on a 96-well, flat bottom white polystyrene tissue culture plate in OptiMEM 0.5% FBS (mouse neutrophils) or RPMI 2% FBS (human neutrophils). 4 hours later, purified neutrophils (100,000/well for mouse neutrophils and 5000 for human neutrophils) were added to the plated tumour cells and co-cultured overnight. […]

4T1 tumour-bearing mice = test: In vivo administration of Apocynin, spontaneous metastasis assay; parameters: species or system mouse; conditions: Apocynin 2.4 g/liter in drinking water from 24 hours after orthotopic 4T1 injection, vs control
Text: 4T1, B16-F10, and Lewis Lung Carcinoma (LLC) murine tumour cell lines as well as the human MCF7 and MDA-MB-231 mammary tumour cell lines were purchased from the ATCC. The human 4175 (LM2) cell line was described in Minn, et al., Nature 436:518-524 (2005), herein incorporated by reference). CCL2 and CCL5 knockdown 4T1 cells were generated by lentiviral transduction with CCL2 and CCL5 specific shRNAs from the SKI shRNA lentiviral collection. 4T1, MCF7 and 4175 were orthotopically injected into the mammary fat pad. B16-F10 and LLC cells were injected intradermally. Spontaneous Metastasis Assay 4T1 cells were transduced with pLVX based lentiviral particles encoding for firefly luciferase. Balb/C or nude female mice were orthotopically injected with 5×10^6 luciferase labelled cells. Metastatic progression was monitored using IVIS200 imaging system to measure lung specific luciferase activity starting on day 3 post tumour engraftment. Analysis of metastases size distribution and number was done histologically. Tissue Injury Female FVB mice were anesthetized and shaved at the wounding site. An area of skin (4 mm in diameter) area of skin was surgically removed from the dorsal region. […]
Mice were orthotopically injected with 5×10^6 luciferase labelled 4T1 cells. […] Formation of lung metastases was monitored using the IVIS-200 optical in vivo imaging system. […]

| SMILES | IC50 [1] [nM] | neutrophil (TEN) mediated tumour-cell killing in the presence of inhibitor (4T1 cells) | spontaneous lung metastasis (lung specific luciferase activity) (4T1 tumour-bearing mice) |
| --- | --- | --- | --- |
| NC(=O)c1ccc(-c2nc(-c3ccc4c(c3)OCO4)c(-c3ccccn3)[nH]2)cc1 [SB431542] | 94 | – | – |
| COc1cc(C(C)=O)ccc1O [Apocynin] | – | completely inhibits the neutrophil mediated tumour-cell killing | enhanced; also recorded: enhances metastasis |
